Experimental data published in US6503945B2, “Cationic amphiphiles containing N-hydroxyalkyl group for intracellular delivery of biologically active molecules” (Council of Scientific & Industrial Research, priority 1909, dated 2003).

Tested on: COS-1 cells
Assay: Cell transfection assay (β-galactosidase reporter gene activity)
Format: cell-based, African green monkey
Details: compared to Lipofectamine
Experimental: Separate 1 mole (80 l of a 0.0126 M stock solution in chloroform) of N,N-di-n-hexadecyl-N,N-dihydroxyethylammonium bromide (DHDEAB) and 1 mole of the neutral colipid cholesterol (40 l of a 0.0255 M stock solution in chloroform) were combined in a glass vial. The solvent was evaporated initially by a thin flow of moisture free nitrogen and then under high flow for two minutes and then further dried under vacuum (1 mm Hg) for 6 hours.
The dried lipid film was then hydrated with sterile deionized water (1 ml) overnight (9-10 hours) in room temperature to produce a dispersed suspension. The hydrated mixture was then vortexed for 1 minute and was sonicated in a probe sonicator at a constant 25 W sonic power for 5 minutes. The concentrations of both DHDEAB and cholesterol in the resulting solution obtained after sonication was 1 mM. […]
For protein estimation, the resultant medium was removed from the plates and the cells were washed with PBS- Lysis buffer (1001 containing 250 mM Tris.HCl, pH 8.0, 0.5% NP40) was added and the cells were lysed for 30 minutes. […] The plates were read in an Elisa reader (Molecular Devices, Vmax) with a 650 nm filter. […]
The level of galactosidase activity in a 501 lysate was measured by adding to 501 of 2× gal mixture containing 1.33 mg/ml o-nitrophenyl--D-galactopyranoside (Sigma N1127), 200 mM sodium phosphate pH 7.15 and […]. […]

| Compound | in vitro transfection efficiencies |
| --- | --- |
| CCCCCCCCCCCCCCCC[N+](CCO)(CCO)CCCCCCCCCCCCCCCC [amphiphile No. 1, N,N-di-n-hexadecyl-N, N-dihydroxyethylammonium bromide] | enhanced |
| N,N,-di[O-hexadecanoyl]hydroxyethyl-N-hydroxyethyl-N-methylammonium bromide [amphiphile No. 5] | enhanced |
